Test results published in paper PMC10123570 (The Protein Journal, 2023).
Counter-ions that a name gives are not always drawn.

biological target: T1, High Temperature requirement A (LmHtrA) (Listeria monocytogenes, UniProt Q8YA67); experiment: azo-casein cleavage, spectrophotometric; format: biochemical
T1 sequence (Q8YA67 1-500): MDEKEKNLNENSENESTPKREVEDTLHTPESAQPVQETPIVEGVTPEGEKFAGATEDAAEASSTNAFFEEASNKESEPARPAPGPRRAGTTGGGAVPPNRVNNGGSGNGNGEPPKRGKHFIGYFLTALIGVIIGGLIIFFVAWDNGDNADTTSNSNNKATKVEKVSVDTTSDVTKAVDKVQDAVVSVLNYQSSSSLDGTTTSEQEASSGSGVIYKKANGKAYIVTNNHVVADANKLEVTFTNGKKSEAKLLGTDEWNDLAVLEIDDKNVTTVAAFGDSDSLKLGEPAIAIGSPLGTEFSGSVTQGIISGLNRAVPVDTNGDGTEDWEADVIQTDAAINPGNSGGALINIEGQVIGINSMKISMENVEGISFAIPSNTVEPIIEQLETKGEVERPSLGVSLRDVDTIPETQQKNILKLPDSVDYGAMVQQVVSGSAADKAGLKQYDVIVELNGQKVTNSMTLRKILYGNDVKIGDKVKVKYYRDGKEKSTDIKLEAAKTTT

Row | IC50 | SMILES
1 | 152 ± 7.5 µM | CN(C)C(=O)COC(=O)Cc1ccc(OC(=O)c2ccc(NC(=N)N)cc2)cc1 [CM, Camostat mesylate]
2 | 80.6 ± 8.5 µM | CCOC(=O)c1ccc(OC(=O)CCCCCNC(=N)N)cc1 [GM, Gabexate mesylate]
3 | 6.6 ± 0.4 µM | N=C(N)c1ccc2cc(OC(=O)c3ccc(N=C(N)N)cc3)ccc2c1 [NM, Nafamostat mesylate]
